The values below come from US20170081338A1, “SUBSTITUTED HETEROARYL COMPOUNDS AND METHODS OF USE” (Sunshine Lake Pharma Co., Ltd., priority 2015, published 2017).

Data set [1] can be described thus: Compound stability in rat liver microsomes. It counts as in vitro ADME. Conditions: pH 7.4; for half-life at 5 μM: rat liver microsomes 0.5 mg protein/mL, compound 5 μM, NADPH, 37° C., read-out: Rat T1/2; for CLint scaled at 5 μM: rat liver microsomes, in vivo CLint extrapolated. How it is done: (§1) Human or rat liver microsomes incubations were conducted in duplicate in polypropylene tubes. The typical incubation mixtures consisted of human or rat liver microsomes (0.5 mg protein/mL), compounds of interest (5 μM) and NADPH (1.0 mM) in a total volume of 200 μL potassium phosphate buffer (PBS, 100 mM, pH 7.4). Compounds were dissolved in DMSO and diluted with PBS such that the final concentration of DMSO was 0.05%. The enzymatic reactions were commenced with the addition of protein after a 3-min preincubation and incubated in a water bath open to the air at 37° C. Reactions were terminated at various time points (0, 5, 10, 15, 30, 60 min) by adding equal volume of ice-cold acetonitrile. The samples were stored at −80° C. until LC/MS/MS assays.
(§2) The concentrations of compounds in the incubation mixtures of human or rat liver microsomes were determined by a LC/MS/MS method. The ranges of the linearity in the concentration range were determined for each tested compounds.
(§3) A parallel incubation was performed using denatured microsomes as the negative control, and reactions were terminated at various time points (0, 15, 60 min) after incubation at 37° C.
(§4) Dextromethorphan (70 μM) was selected as the positive control, and reactions were terminated at various time points (0, 5, 10, 15, 30, 60 min) after incubation at 37° C. Both positive and negative control samples were included in each assay to ensure the integrity of the microsomal incubation system.
(§5) The concentrations of compounds in human or rat liver microsome incubations were plotted as a percentage of the relevant zero time point control for each reaction. The in vivo CLint were extrapolated (ref.: Naritomi, Y.; Terashita, S.; Kimura, S.; Suzuki, A.; Kagayama, A.; and Sugiyama, Y.; Prediction of human hepatic clearance from in vivo animal experiments and in vitro metabolic studies with liver microsomes from animals and humans. Drug Metab. Dispos., 2001, 29: 1316-1324).

A short description of data set [2]: Pharmacokinetics after intravenous and oral administration in rats. The class given is in vivo. The conditions noted are these: for Clearance (CL) after iv dosing / AUC(0-t) / half-life / Vd: dose 1 mg/kg, iv dosing; for F: oral bioavailability; for AUC(0-t) / half-life / Vd: rat, plasma; for Vd: read-out: Vss. As to the method:
The LC/MS/MS system used in the analysis consists of an Agilent 1200 Series vacuum degasser, binary pump, well-plate autosampler, thermostatted column compartment, the Agilent G6430 Triple Quadrupole Mass Spectrometer with an electrosprayionization (ESI) source. Quantitative analysis was carried out using MRM mode. The parameters for MRM transitions are in the Table A.
An Agilent XDB-C18, 2.1×30 mm, 3.5 μM column was used for the analysis. 5 μL of the samples were injected. Analysis condition: The mobile phase was 0.1% formic acid in water (A) and 0.1% formic acid in methanol (B). The flow rate was 0.4 mL/min. And the gradient of Mobile phase was in the Table B.
Alternatively, an Agilent 6330 series LC/MS/MS spectrometer equipped with G1312A binary pumps, a G1367A autosampler and a G1314C UV detector were used in the analysis. An ESI source was used on the LC/MS/MS spectrometer. The analysis was done in positive ion mode as appropriate and the MRM transition for each analyte was optimized using standard solution. A Capcell MP-C18 100×4.6 mm I.D., […] column (Phenomenex, Torrance, Calif., USA) was used during the analysis. The mobile phase was 5 mM ammonia acetate, 0.1% MeOH in water (A): 5 mM ammonia acetate, 0.1% MeOH in acetonitrile (B) (70/30, v/v). The flow rate was 0.6 mL/min. Column was maintained at ambient temperature. 20 μL of the samples were injected.
The compounds disclosed herein are assessed in pharmacokinetic studies in mice, rats, dogs or monkeys. The compounds are administered as a water solution, 2% HPMC+1% TWEEN®80 in water solution, 5% DMSO+5% solutol in saline, 4% MC suspension or capsule. For the intravenous administration, the animals are generally given at 0.5, 1 or 2 mg/kg dose. For the oral (p.o.) dosing, mice and rats are generally given 0.5, 1, 5 or 10 mg/kg dose, and dogs and monkeys are generally given 10 mg/kg dose. The blood samples (0.3 mL) are drawn at 0.25, 0.5, 1.0, 2.0, 3.0, 4.0, 6.0, 8.0, 12 and 24 h time points or 0.083, 0.25, 0.5, 1.0, 2.0, 4.0, 6.0, 8.0 and 24 h time points and centrifuged at 3,000 or 4000 rpm for 2 to 10 min. The plasma solutions are collected, and stored at −20° C. or −70° C. until analyzed by LC/MS/MS as described above.

Data set [3] in a line: Compound stability in human liver microsomes. The conditions noted are these: pH 7.4; for half-life at 5 μM: human liver microsomes 0.5 mg protein/mL, compound 5 μM, NADPH, 37° C., read-out: Human T1/2; for CLint scaled at 5 μM: human liver microsomes, in vivo CLint extrapolated. It counts as in vitro ADME. As to the method:
as §1, §2, §3, §4, §5

As to `CNC(=O)N[C@H]1COC2C1OC[C@H]2Nc1nc(Nc2cnn(C)c2)ncc1Cl` (stereo partly drawn) [Ex. 1, 1-((3S,6R)-6-((5-chloro-2-((1-methyl-1H-pyrazol-4-yl)amino)pyrimidin-4-yl)amino)hexahydrofuro[3,2-b]furan-3-yl)-3-methylurea], in data set [1], the half-life at 5 μM is 1.93 h and the CLint scaled at 5 μM is 1.29 L/h/kg. Also, in data set [2], the “Clearance (CL) after iv dosing” value worked out at 2.52 L/h/kg, the F stood at 52.4%, the AUC(0-t) is 0.398 µg·h/mL and the half-life is 0.23 h. Moreover, in data set [2], the Vd came out at 0.55 L/kg.

On to `Cn1cc(Nc2ncc(Cl)c(N[C@@H]3COC4C3OC[C@@H]4NS(=O)(=O)c3ccc(F)cc3)n2)cn1` (stereo partly drawn) [Ex. 8, N-((3S,6R)-6-((5-chloro-2-((1-methyl-1H-pyrazol-4-yl)amino)pyrimidin-4-yl)amino)hexahydrofuro[3,2-b]furan-3-yl)-4-fluorobenzenesulfonamide], for which, in data set [3], the half-life at 5 μM was 0.955 h and the CLint scaled at 5 μM was 1.82 L/h/kg. Further, in data set [1], the half-life at 5 μM amounted to 1.13 h and the CLint scaled at 5 μM was 2.19 L/h/kg. For the same compound, in data set [2], the “Clearance (CL) after iv dosing” value came out at 2.28 L/h/kg, the F is on record as 90.1%, the AUC(0-t) was 0.452 µg·h/mL and the half-life is 0.62 h. Further, the Vd in data set [2] amounted to 1.87 L/kg.

Consider `Cn1cc(Nc2ncc(Cl)c(N[C@@H]3COC4C3OC[C@@H]4N3CCOC3=O)n2)cn1` (stereo partly drawn) [Ex. 9, 3-((3S,6R)-6-((5-chloro-2-((1-methyl-1H-pyrazol-4-yl)amino)pyrimidin-4-yl)amino)hexahydrofuro[3,2-b]furan-3-yl)oxazolidin-2-one], for which, in data set [2], the F is 64.6%, the AUC(0-t) was 0.792 µg·h/mL, the half-life was 10.6 h and the Vd came out at 27.1 L/kg.

In the case of `Cn1cc(Nc2ncc(Cl)c(N[C@@H]3COC4C3OC[C@@H]4NS(=O)(=O)N3CCOCC3)n2)cn1` (stereo partly drawn) [Ex. 11, N-((3S,6R)-6-((5-chloro-2-((1-methyl-1H-pyrazol-4-yl)amino)pyrimidin-4-yl)amino)hexahydrofuro[3,2-b]furan-3-yl)morpholine-4-sulfonamide], in data set [3], the half-life at 5 μM stood at 0.735 h and the CLint scaled at 5 μM was 2.37 L/h/kg. In addition, in data set [1], the half-life at 5 μM came out at 2.01 h and the CLint scaled at 5 μM was 1.24 L/h/kg. In data set [2], the F is recorded as 40.0%, the AUC(0-t) was determined as 0.542 µg·h/mL, the half-life is 5.58 h and the Vd was determined as 23.5 L/kg.

Turning to `Cn1cc(Nc2ncc(Cl)c(N[C@@H]3COC4C3OC[C@@H]4N3CCCS3(=O)=O)n2)cn1` (stereo partly drawn) [Ex. 12, 2-((3S,6R)-6-((5-chloro-2-((1-methyl-1H-pyrazol-4-yl)amino)pyrimidin-4-yl)amino)hexahydrofuro[3,2-b]furan-3-yl)isothiazolidine 1,1-dioxide], in data set [3], the half-life at 5 μM was found to be 4.53 h and the CLint scaled at 5 μM is 0.383 L/h/kg. In data set [1], the half-life at 5 μM was 1.75 h and the intrinsic metabolic clearance (CLint scaled) at 5 μM was 1.42 L/h/kg. Further, in data set [2], the “Clearance (CL) after iv dosing” value is listed as 3.59 L/h/kg, the F was determined as 75.2%, the AUC(0-t) came to 0.363 µg·h/mL and the half-life is 0.67 h. Also, the Vd in data set [2] came to 1.98 L/kg.

Consider `Cn1cc(Nc2ncc(Cl)c(N[C@@H]3COC4C3OC[C@@H]4N3CCCC3=O)n2)cn1` (stereo partly drawn) [Ex. 22, 1-((3S,6R)-6-((5-chloro-2-((1-methyl-1H-pyrazol-4-yl)amino)pyrimidin-4-yl)amino)hexahydrofuro[3,2-b]furan-3-yl)pyrrolidin-2-one], for which, in data set [3], the half-life at 5 μM is 4.82 h and the CLint scaled at 5 μM is 0.361 L/h/kg. Moreover, in data set [1], the half-life at 5 μM came out at 1.74 h and the CLint scaled at 5 μM was 1.43 L/h/kg. Also, in data set [2], the “Clearance (CL) after iv dosing” value stood at 0.61 L/h/kg, the F is 96.9%, the AUC(0-t) worked out at 1.63 µg·h/mL and the half-life is 1.09 h. In data set [2], the Vd came to 1.06 L/kg.

With `Cn1cc(Nc2ncc(Cl)c(N[C@@H]3COC4C3OC[C@@H]4Nc3ccc(C#N)cn3)n2)cn1` (stereo partly drawn) [Ex. 23, 6-(((3S,6R)-6-((5-chloro-2-((1-methyl-1H-pyrazol-4-yl)amino)pyrimidin-4-yl)amino)hexahydrofuro[3,2-b]furan-3-yl)amino)nicotinonitrile], in data set [3], the half-life at 5 μM is 0.999 h and the CLint scaled at 5 μM was 1.74 L/h/kg. In data set [1], the half-life at 5 μM amounted to 0.443 h and the CLint scaled at 5 μM is 5.6 L/h/kg. For the same compound, in data set [2], the “Clearance (CL) after iv dosing” value was 0.42 L/h/kg, the F was found to be 67.5%, the AUC(0-t) was determined as 2.44 µg·h/mL and the half-life was 0.45 h. Further, in data set [2], the Vd turned out to be 0.26 L/kg.

In the case of `Cn1cc(Nc2ncc(Cl)c(N[C@@H]3COC4C3OC[C@@H]4NS(=O)(=O)C(C)(C)C)n2)cn1` (stereo partly drawn) [Ex. 24, N-((3S,6R)-6-((5-chloro-2-((1-methyl-1H-pyrazol-4-yl)amino)pyrimidin-4-yl)amino)hexahydrofuro[3,2-b]furan-3-yl)-2-methylpropane-2-sulfonamide], in data set [3], the half-life at 5 μM was determined as 0.426 h and the CLint scaled at 5 μM is 4.08 L/h/kg. Also, in data set [1], the half-life at 5 μM was 1.31 h and the CLint scaled at 5 μM is 1.9 L/h/kg. In data set [2], the “Clearance (CL) after iv dosing” value is 1.76 L/h/kg, the F came out at 127.3%, the AUC(0-t) came out at 0.567 µg·h/mL and the half-life is 0.7 h. Also, the Vd in data set [2] came to 1.4 L/kg.

For the compound `O=S(=O)(CC1CC1)N[C@H]1COC2C1OC[C@H]2Nc1nc(Nc2cnn(C3CCNCC3)c2)ncc1Cl` (stereo partly drawn) [Ex. 35, N-((3S,6R)-6-((5-chloro-2-((1-(piperidin-4-yl)-1H-pyrazol-4-yl)amino)pyrimidin-4-yl)amino)hexahydrofuro[3,2-b]furan-3-yl)-1-cyclopropylmethanesulfonamide], the half-life at 5 μM turned out to be 0.851 h in data set [3] and 7.35 h in data set [1]. Further, the CLint scaled at 5 μM was 2.04 L/h/kg in data set [3] and 0.336 L/h/kg in data set [1].

Turning to `Cn1cc(Nc2ncc(Cl)c(N[C@@H]3COC4C3OC[C@@H]4NS(=O)(=O)CC3CC(F)C3)n2)cn1` (stereo partly drawn) [Ex. 39, N-((3S,6R)-6-((5-chloro-2-((1-methyl-1H-pyrazol-4-yl)amino)pyrimidin-4-yl)amino)hexahydrofuro[3,2-b]furan-3-yl)-1-(3-fluorocyclobutyl)methanesulfonamide], in data set [2], the “Clearance (CL) after iv dosing” value is 2.15 L/h/kg, the F is recorded as 48.7%, the AUC(0-t) is 0.464 µg·h/mL and the half-life was 0.55 h. Further, the Vd in data set [2] worked out at 1.07 L/kg.

Turning to `CC(O)CS(=O)(=O)N[C@H]1COC2C1OC[C@H]2Nc1nc(Nc2cnn(C)c2)ncc1Cl` (stereo partly drawn) [Ex. 44, N-((3S,6R)-6-((5-chloro-2-((1-methyl-1H-pyrazol-4-yl)amino)pyrimidin-4-yl)amino)hexahydrofuro[3,2-b]furan-3-yl)-2-hydroxypropane-1-sulfonamide], in data set [3], the half-life at 5 μM was 14 h and the CLint scaled at 5 μM was 0.126 L/h/kg. Also, in data set [1], the half-life at 5 μM was determined as 5.16 h and the CLint scaled at 5 μM is 0.48 L/h/kg.
